According to patent EP4467535A1, “LACTAM PESTICIDAL COMPOUNDS” (priority 2023, dated 2024):

Columns and labels:
Type in all cases: in vivo
[1] = tested on: Orchid thrips (Dichromothrips corbetti); assay: Action on Orchid thrips (Dichromothrips corbetti), floral-immersion technique; details: adult thrips on dipped orchid petals, 72 hours after treatment, read-out: mortality in comparison with untreated controls
Procedure: Example B2: Action on Orchid thrips (Dichromothrips corbetti)
Dichromothrips corbetti adults used for bioassay were obtained from a colony maintained continuously under laboratory conditions. For testing purposes, the test compound is diluted in a 1:1 mixture of acetone:water (vol:vol), plus Kinetic® HV at a rate of 0.01% v/v.
Thrips potency of each compound was evaluated by using a floral-immersion technique. All petals of individual, intact orchid flowers were dipped into treatment solution and allowed to dryin Petri dishes. Treated petals were placed into individual re-sealable plastic along with about 20 adult thrips. All test arenas were held under continuous light and a temperature of about 28°C for duration of the assay. After 3 days, the numbers of live thrips were counted on each petal. The percent mortality was recorded 72 hours after treatment.

[2] = tested on: Diamond back moth (Plutella xylostella); assay: Action on Diamond back moth (Plutella xylostella), cabbage leaf dip test; details: foliar, third instar larvae on dipped cabbage leaves, 72 hours after treatment, read-out: mortality in comparison with untreated controls
Procedure: Example B6: Action on Diamond back moth (Plutella xylostella)
The active compound is dissolved at the desired concentration in a mixture of 1:1 (v/v) distilled water: acetone. Surfactant (Kinetic® HV) is added at a rate of 0.01% (v/v). The test solution is prepared at the day of use.
Leaves of cabbage were dipped in test solution and air-dried. Treated leaves were placed in petri dishes lined with moist filter paper and inoculated with ten third instar larvae. Mortality was recorded 72 hours after treatment. Feeding damages were also recorded using a scale of 0-100%.

[3] = tested on: Boll weevil (Anthonomus grandis); assay: Action on Boll weevil (Anthonomus grandis), 96-well microtiter plate insect diet test; details: 120 h, egg and larval mortality visually assessed after 5 days, read-out: mortality in comparison with untreated controls
Procedure: Example B3: Action on Boll weevil (Anthonomus grandis )
For evaluating control of boll weevil (Anthonomus grandis) the test unit consisted of 96-well-microtiter plates containing an insect diet and 5-10 A. grandis eggs.
The compounds were formulated using a solution containing 75% (v/v) water and 25% (v/v) DMSO. Different concentrations of formulated compounds were sprayed onto the insect diet at 5 µL, using a custom-built micro atomizer, at two replications.
After application, microtiter plates were incubated at about 25 + 1°C and about 75 + 5 % relative humidity for 5 days. Egg and larval mortality were then visually assessed.

[4] = tested on: Tobacco budworm (Heliothis virescens); assay: Action on Tobacco budworm (Heliothis virescens), 96-well microtiter plate insect diet test; details: 120 h, egg and larval mortality visually assessed after 5 days, read-out: mortality in comparison with untreated controls
Procedure: Example B5: Action on Tobacco budworm (Heliothis virescens)
For evaluating control of tobacco budworm (Heliothis virescens) the test unit consisted of 96-well-microtiter plates containing an insect diet and 15-25 H. virescens eggs.
The compounds were formulated using a solution containing 75% v/v water and 25% v/v DMSO. Different concentrations of formulated compounds were sprayed onto the insect diet at 10 µl, using a custom-built micro atomizer, at two replications.
After application, microtiter plates were incubated at about 28 + 1°C and about 80 + 5 % relative humidity for 5 days. Egg and larval mortality were then visually assessed.

[5] = tested on: Silverleaf whitefly (Bemisia argentifolii) (adults); assay: Action on Silverleaf whitefly (Bemisia argentifolii) adults, sprayed cotton plants; details: 72 h, read-out: mortality in comparison with untreated controls
Procedure: Example B4: Action on Silverleaf whitefly (Bemisia argentifolii) (adults)
(§1) The active compounds were formulated by a Tecan liquid handler in 100% cyclohexanone as a 10,000 ppm solution supplied in tubes. The 10,000 ppm solution was serially diluted in 100% cyclohexanone to make interim solutions. These served as stock solutions for which final dilutions were made by the Tecan in 50% acetone:50% water (v/v) into 5 or 10ml glass vials. A nonionic surfactant (Kinetic®) was included in the solution at a volume of 0.01% (v/v). The vials were then inserted into an automated electrostatic sprayer equipped with an atomizing nozzle for application to plants/insects.
Cotton plants at the cotyledon stage (one plant per pot) were sprayed by an automated electrostatic plant sprayer equipped with an atomizing spray nozzle. The plants were dried in the sprayer fume hood and then removed from the sprayer. Each pot was placed into a plastic cup and about 10 to 12 whitefly adults (approximately 3-5 days old) were introduced. The insects were collected using an aspirator and a nontoxic Tygon® tubing connected to a barrier pipette tip. The tip, containing the collected insects, was then gently inserted into the soil containing the treated plant, allowing insects to crawl out of the tip to reach the foliage for feeding. […] Mortality was assessed 3 days after treatment, compared to untreated control plants.

[6] = tested on: Yellow fever mosquito (Aedes aegypti); assay: whole plant or invertebrate; details: 48 h, larval mortality visually assessed after 2 days at 28 ± 1°C, read-out: mortality in comparison with untreated controls
Procedure: Example B1: Action on Yellow fever mosquito (Aedes aegypti)
For evaluating control of yellow fever mosquito (Aedes aegypti) the test unit consisted of 96-well-microtiter plates containing 200µL of tap water per well and 5-15 freshly hatched A. aegypti larvae.
The active compounds or mixtures were formulated using a solution containing 75% (v/v) water and 25% (v/v) DMSO. Different concentrations of formulated compounds or mixtures were sprayed onto the insect diet at 2.5µL, using a custom-built micro atomizer, at two replications.
For experimental mixtures in these tests identical volumes of both mixing partners at the desired concentrations respectively, were mixed together.
After application, microtiter plates were incubated at 28 ± 1°C, 80 ± 5 % relative humidity for 2 days. Larval mortality was then visually assessed.

[7] = tested on: Southern armyworm (Spodoptera eridania), second instar larvae; assay: Action on Southern armyworm (Spodoptera eridania), sprayed lima bean plants; details: 96 h, 4 days after treatment, read-out: mortality in comparison with untreated controls
Procedure: Example B7: Action on Southern armyworm (Spodoptera eridania), second instar larvae
as §1, with “into 10” for “into 5”, “or 20 mL” for “or 10ml”
Lima bean plants (variety Sieva) were grown 2 plants to a pot and selected for treatment at the 1st true leaf stage. Test solutions were sprayed onto the foliage by an automated electrostatic plant sprayer equipped with an atomizing spray nozzle. The plants were dried in the sprayer fume hood and then removed from the sprayer. Each pot was placed into perforated plastic bags with a zip closure. About 10 to 11 armyworm larvae were placed into the bag and the bags zipped closed. Test plants were maintained in a growth room at about 25°C and about 20-40% relative humidity for 4 days, avoiding direct exposure to fluorescent light (24 hour photoperiod) to prevent trapping of heat inside the bags. Mortality and reduced feeding were assessed 4 days after treatment, compared to untreated control plants.

Cc1ccc(C(C)C)c(N2C(=O)CS/C2=N\N=C\c2ccc(-c3nn(C)c(N4Cc5cc(OC(F)(F)F)ccc5C4=O)c3C)cc2)c1 [C-2, (2Z)-2-[(E)-[4-[1,4-dimethyl-5-[1-oxo-5-(trifluoromethoxy)isoindolin-2-yl]pyrazol-3-yl]phenyl]methylenehydrazono]-3-(2-isopropyl-5-methyl-phenyl)thiazolidin-4-one]
mortality at 300 ppm [1]: ≥ 75%
mortality at 300 ppm [2]: ≥ 75%
mortality at 800 ppm [3]: ≥ 75%
mortality at 800 ppm [4]: ≥ 75%
mortality at 300 ppm [5]: ≥ 75%
mortality at 800 ppm [6]: ≥ 50%
mortality at 300 ppm [7]: ≥ 75%
